The results in this text go back to PubChem BioAssay (NCI).

Test systems include NCI-H23 lung; MALME-3M melanoma; NCI-H460 lung; SR leukemia; OVCAR-3 ovarian; RPMI-8226 leukemia; UO-31 renal; ACHN renal; SF-539 CNS; HOP-62 NSCLC.
What all share (test): inhibition of tumour cell growth, NCI panel, 48 h

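48-hour exposure; five concentrations; linearly interpolated endpoints. Abbreviation: GI50, concentration required for 50% inhibition of growth. TGI marks complete inhibition of growth.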

Take `CSc1ccc(NC(=O)Nc2cc(C)ccn2)cc1`: the TGI in the assay on NCI-H23 lung, in the assay with MALME-3M melanoma, with NCI-H460 lung, in the assay on SR leukemia, in the assay with OVCAR-3 ovarian and in the assay on RPMI-8226 leukemia was greater than 100 µM each time. Besides, the TGI in the assay on UO-31 renal, with ACHN renal, in the assay on SF-539 CNS and in the assay on HOP-62 NSCLC was greater than 100 µM each time.

For the compound `CC(C)(O)CCc1cccc(C(=O)c2cnn(-c3ccc(F)cc3)c2N)c1`, the GI50 with NCI-H23 lung, with MALME-3M melanoma, in the assay with NCI-H460 lung, with SR leukemia, in the assay on OVCAR-3 ovarian and in the assay with RPMI-8226 leukemia was greater than 25 µM in each case. The GI50 with UO-31 renal, in the assay on ACHN renal, with SF-539 CNS and in the assay with HOP-62 NSCLC was greater than 25 µM each time. Moreover, the TGI with NCI-H23 lung, in the assay on MALME-3M melanoma, in the assay on NCI-H460 lung, in the assay on SR leukemia, in the assay on OVCAR-3 ovarian and with RPMI-8226 leukemia was greater than 25 µM each time. Moreover, the TGI in the assay on UO-31 renal, with ACHN renal, in the assay on SF-539 CNS and in the assay on HOP-62 NSCLC was greater than 25 µM in each case.

In the case of `COc1cc2c3cc1Oc1c(OC)c(OC)cc4c1[C@@H](Cc1ccc(O)c(c1)Oc1ccc(cc1)C[C@@H]3N(C)CC2)N(C)CC4`, the TGI with NCI-H23 lung stood at 61.3 µM; in the assay on MALME-3M melanoma, 31.7 µM; in the assay on NCI-H460 lung, 75.6 µM; in the assay with SR leukemia it was 4.95 µM; in the assay on OVCAR-3 ovarian, 29.5 µM; with RPMI-8226 leukemia, 41.5 µM. Moreover, the TGI turned out to be 30.1 µM in the assay on UO-31 renal, 38.1 µM with ACHN renal, 13.1 µM in the assay on SF-539 CNS and 36 µM with HOP-62 NSCLC.

In the case of `CSc1nnc(-c2cc3c([nH]c4ccccc43)c(-c3cccc(O)c3)n2)n1-c1ccc(C)cc1`, the GI50 in the assay on NCI-H23 lung is 5.76 µM; with MALME-3M melanoma, 1.88 µM; in the assay with NCI-H460 lung it was 3.31 µM; in the assay on SR leukemia it was 2.09 µM; with OVCAR-3 ovarian, 2.64 µM; in the assay on RPMI-8226 leukemia, 5.31 µM. The GI50 in the assay on UO-31 renal is 1.93 µM; in the assay with ACHN renal, 2.11 µM; in the assay with SF-539 CNS it was 2.81 µM; in the assay on HOP-62 NSCLC it was 2.47 µM. The TGI with NCI-H23 lung was greater than 100 µM; with MALME-3M melanoma, 5.4 µM; with NCI-H460 lung, 14.6 µM; in the assay on SR leukemia, greater than 100 µM; with OVCAR-3 ovarian, 9.24 µM; in the assay on RPMI-8226 leukemia it was greater than 100 µM. Also, the TGI with UO-31 renal amounted to 29.1 µM; in the assay on ACHN renal, 6.06 µM; in the assay with SF-539 CNS, 14.1 µM; with HOP-62 NSCLC it was 7.45 µM.

For `Cc1c(Cl)cccc1NC(=O)c1sc2nc3c(cc2c1N)C(=O)CCC3`, the GI50 with NCI-H23 lung was 0.137 µM; with MALME-3M melanoma, 0.0363 µM; with NCI-H460 lung it was 0.0407 µM; in the assay on SR leukemia, 0.0725 µM; in the assay with OVCAR-3 ovarian, 0.048 µM; in the assay with RPMI-8226 leukemia, 0.234 µM. For the same compound, the GI50 is 0.0682 µM in the assay on UO-31 renal, 0.0825 µM in the assay on ACHN renal, 0.0353 µM in the assay on SF-539 CNS and 0.102 µM in the assay on HOP-62 NSCLC. Also, the TGI in the assay with NCI-H23 lung is greater than 100 µM; in the assay with MALME-3M melanoma, greater than 100 µM; with NCI-H460 lung, greater than 100 µM; in the assay with SR leukemia it was greater than 100 µM; in the assay on OVCAR-3 ovarian, 0.53 µM; in the assay with RPMI-8226 leukemia, greater than 55.4 µM. The TGI with UO-31 renal was greater than 91.5 µM; in the assay on ACHN renal it was greater than 61.5 µM; in the assay with SF-539 CNS, 0.19 µM; in the assay on HOP-62 NSCLC it was 29.8 µM.

As for `COc1cccc(N2CCN(c3ncnc4cc[nH]c34)CC2)c1`, the GI50 in the assay on NCI-H23 lung was 3.47 µM; in the assay with MALME-3M melanoma, 10 µM; with NCI-H460 lung, 7.19 µM; in the assay on SR leukemia it was 1.73 µM; in the assay on OVCAR-3 ovarian it was 9.51 µM; in the assay on RPMI-8226 leukemia, 2.78 µM. Also, the GI50 was 7.37 µM with UO-31 renal, 19 µM in the assay with ACHN renal, 20.8 µM in the assay with SF-539 CNS and 17.8 µM in the assay on HOP-62 NSCLC. Moreover, the TGI in the assay on NCI-H23 lung is greater than 100 µM; with MALME-3M melanoma it was 55.3 µM; in the assay on NCI-H460 lung it was greater than 100 µM; in the assay on SR leukemia, greater than 100 µM; in the assay with OVCAR-3 ovarian it was greater than 100 µM; in the assay on RPMI-8226 leukemia it was 94.8 µM. Further, the TGI with UO-31 renal, in the assay with ACHN renal, in the assay on SF-539 CNS and with HOP-62 NSCLC was greater than 100 µM each time.

Regarding `O=[N+]([O-])c1cccc(S(=O)(=O)N/N=C/c2cc(I)cc([N+](=O)[O-])c2O)c1`, the TGI is 42.4 µM in the assay on NCI-H23 lung; 64.2 µM with MALME-3M melanoma; greater than 100 µM with NCI-H460 lung; 60.9 µM in the assay on SR leukemia; 43.9 µM with OVCAR-3 ovarian; 86.2 µM in the assay on RPMI-8226 leukemia. Moreover, the TGI with UO-31 renal is 67.5 µM; with ACHN renal, 95.8 µM; in the assay on SF-539 CNS, 48.5 µM; in the assay with HOP-62 NSCLC it was 57.2 µM.

In the case of `CNCC(=O)NC(CO)C(=O)NC(CO)C(=O)NC1C(C(N)=O)OC(n2ccc(N)nc2=O)C(O)C1O` (stereo not given), the GI50 with NCI-H23 lung is 8.49 µg/mL; with MALME-3M melanoma, 0.225 µg/mL; in the assay on NCI-H460 lung, 3.39 µg/mL; with SR leukemia, 16.8 µg/mL; in the assay on OVCAR-3 ovarian, 8.43 µg/mL; in the assay with RPMI-8226 leukemia, greater than 50 µg/mL. For the same compound, the GI50 is 12.4 µg/mL in the assay on UO-31 renal, 5.15 µg/mL in the assay on ACHN renal, 5.01 µg/mL with SF-539 CNS and 6.44 µg/mL in the assay with HOP-62 NSCLC. Besides, the TGI in the assay with NCI-H23 lung is 48.8 µg/mL; in the assay on MALME-3M melanoma, 7.58 µg/mL; in the assay with NCI-H460 lung, 31.3 µg/mL; in the assay with SR leukemia, greater than 50 µg/mL; in the assay with OVCAR-3 ovarian, 29.6 µg/mL; with RPMI-8226 leukemia, greater than 50 µg/mL. Also, the TGI in the assay on UO-31 renal was greater than 50 µg/mL; in the assay on ACHN renal it was greater than 50 µg/mL; in the assay on SF-539 CNS it was 28.7 µg/mL; in the assay on HOP-62 NSCLC, 32.3 µg/mL.

For `O=C(N/N=C/c1cc(Cl)ccc1O)c1ccccc1Nc1ccnc(C(F)(F)F)c1`, the GI50 with NCI-H23 lung is 1.31 µM; in the assay on MALME-3M melanoma, 0.839 µM; with NCI-H460 lung it was 0.323 µM; with SR leukemia it was 0.246 µM; with OVCAR-3 ovarian it was 0.472 µM; with RPMI-8226 leukemia it was 0.174 µM. For the same compound, the GI50 is 0.346 µM with UO-31 renal, 0.3 µM in the assay on ACHN renal, 0.721 µM with SF-539 CNS and 0.334 µM in the assay on HOP-62 NSCLC. Also, the TGI with NCI-H23 lung was determined as 16.3 µM; with MALME-3M melanoma it was 5.29 µM; in the assay with NCI-H460 lung, 10.5 µM; in the assay on SR leukemia, 1.76 µM; in the assay with OVCAR-3 ovarian, 9.86 µM; in the assay on RPMI-8226 leukemia, 1.2 µM. For the same compound, the TGI in the assay with UO-31 renal was 7.73 µM; in the assay with ACHN renal, 11.2 µM; in the assay with SF-539 CNS, 8.19 µM; with HOP-62 NSCLC it was 3.65 µM.
